Measured values as given in patent US11571418B2, “Platinum compounds that inhibit constitutive STAT3 signaling and induce cell cycle arrest and apoptosis of malignant cells” (H. LEE MOFFITT CANCER CENTER AND RESEARCH INSTITUTE, INC., priority 2011, dated 2023).

How the values were obtained:
[1] = test system: MDA-MB-453; experiment: Cell cycle analysis by BrdU labeling and flow cytometry; type: cell-based, human; conditions: no constitutively-active Stat3
Protocol: (§1) FIG. 6. Analysis of relative cellular DNA content using BrdU labeling and flow cytometry. Relative DNA content of human breast cancer cell lines following treatment with or without PLATINUM-401 was analyzed by BrdU incorporation and flow cytometry. The population of cells determined from the relative DNA content is shown in each panel for each treatment condition. Results are the representative of 3 independent determinations.
(§2) Cell proliferation and TUNEL assays—Proliferating cells were first treated with or without PLATINUM-401 for up to 48 h. A portion of cells were harvested for BrdU incorporation following the manufacturer's (BD Biosciences Pharmingen, San Diego, Calif.) instructions and analyzed by flow cytometry. Harvested cells were also analyzed for apoptosis via detection of TdT-mediated dUTP nick-end labeling (TUNEL) assay using Apoptosis Detection Systems Fluorescein according to the manufacturer's (Roche, Indianapolis, Ind.) instructions. Oligonucleotides and plasmids Transfections. The Stat3 antisense (5′-[…]-3′) (SEQ ID NO:3) or control mismatch oligonucleotides (5′-[…]-3′) (SEQ ID NO:4) were synthesized using phosphorothioate chemistry and were synthesized with 2′-Omethoxyethyl modification of the five terminal nucleotides (underlined; (Mora et al., 2002; Karras et al., 2000)) to increase stability. Transfections of Stat3AS and plasmids were carried out with Lipofectamine 2000 (LF) according to the manufacturer's instructions (Invitrogen, Carlsbad, Calif.). Briefly, cells were seeded at 1-2×10^6 cells/10-cm tissue-culture plates 18 h before transfection. Immediately before transfection, cells were washed once with PBS. Cells were transfected with luciferase reporters (4 μg) in the presence or absence of v-Src (4 μg), or were transfected with Stat3β (4 μg) or pRC/CMV Stat3 Flag (4 μg). […]
(§3) The inventors further examined the biological effects of PLATINUM-401 and determined whether any changes might correlate with the inhibition of constitutively-active Stat3. […]

[2] = test system: MDA-MB-231; experiment: as above; type: cell-based, human
Protocol: as §1, §2, §3

[3] = test system: 5TGM1; experiment: TUNEL analysis of apoptosis; type: cell-based, mouse; conditions: 48 h
Source text: (§4) FIGS. 7A-7C. TUNEL analysis of PLATINUM-401-mediated apoptosis. (FIG. 7A) Normal NIH3T3 fibroblasts and their v-Src-transformed counterparts (NIH3T3/v-Src), human breast carcinoma cell lines (MDA-MB-453, MDA-MB-435, MDA-MB-468, and MDA-MB-231), human non-small cell lung cancer cell line (A549), human prostate cancer cell line (DU145), multiple myeloma 5TGM1 (mouse) and U266 (human) cell lines, mouse melanoma cell line (B16) and human pancreatic cancer cell line (Panc1) were all treated with or without PLATINUM-401 for 48 h and analyzed by TUNEL for DNA damage. For each cell line, the activated Stat3 status is indicated as (−), no constitutively-active Stat3 and (+), constitutively-active Stat3 (see FIG. 5A). Data are representative of 3 independent determinations; (FIG. 7B) Human breast cancer cell lines (MDA-MB-453, MDA-MB-468 and MDA-MB-435) were transfected with or without Stat3β or Stat3 antisense (Stat3AS), or were treated with or without Stat3 peptidomimetic inhibitor, ISS 610 (1 mM) or PLATINUM-401 (5 μM)). Forty-eight hours afterwards, cells were harvested and processed for TUNEL analysis; (FIG. 7C) The viral Src-transformed NIH3T3/v-Src fibroblasts were transfected with or without wild-type Stat3 (pRc/CMV Stat3 Flag) and treated with or without 5 μM PLATINUM-401 for 36 h. Cells were subsequently harvested for nuclear extracts preparation and Stat3 DNA-binding assay in vitro with EMSA analysis (left panel), or were processed for TUNEL analysis (right panel).
(§5) Cell proliferation and TUNEL assays—Proliferating cells were first treated with or without PLATINUM-401 for up to 48 h. A portion of cells were harvested for BrdU incorporation following the manufacturer's (BD Biosciences Pharmingen, San Diego, Calif.) instructions and analyzed by flow cytometry. Harvested cells were also analyzed for apoptosis via detection of TdT-mediated dUTP nick-end labeling (TUNEL) assay using Apoptosis Detection Systems Fluorescein according to the manufacturer's (Roche, Indianapolis, Ind.) instructions. Oligonucleotides and plasmids Transfections. The Stat3 antisense (5′-[…]-3′) (SEQ ID NO:3) or control mismatch oligonucleotides (5′-[…]-3′) (SEQ ID NO:4) were synthesized using phosphorothioate chemistry and were synthesized with 2′-Omethoxyethyl modification of the five terminal nucleotides (underlined; (Mora et al., 2002; Karras et al., 2000)) to increase stability. Transfections of Stat3AS and plasmids were carried out with Lipofectamine 2000 (LF) according to the manufacturer's instructions (Invitrogen, Carlsbad, Calif.). Briefly, cells were seeded at 1-2×10^6 cells/10-cm tissue-culture plates 18 h before transfection. Immediately before transfection, cells were washed once with PBS. Cells were transfected with luciferase reporters (4 μg) in the presence or absence of v-Src (4 μg), or were transfected with Stat3β (4 μg) or pRC/CMV Stat3 Flag (4 μg). Stat3AS transfections were carried out LF alone, or with LF/Stat3 antisense oligonucleotides, or LF/Stat3 mismatch oligonucleotides (final concentration of the oligonucleotides was 250 nM). After 2-3 h, the transfection medium was aspirated and cells washed with PBS before fresh medium added containing 10% FBS was added.
(§6) Cells were analyzed for DNA-strand breaks by TUNEL staining. […] The incidence of apoptosis correlated with the prevalence of constitutively-active Stat3 in malignant cells (FIG. 7, lower panel). […]

[4] = test system: NIH3T3; experiment: TUNEL analysis of apoptosis; type: cell-based, mouse; conditions: 48 h, no aberrant Stat3 activity
Source text: as §4, §5, §6

[5] = test system: NIH3T3/v-Src; experiment: TUNEL analysis of apoptosis; type: cell-based, mouse
Source text: as §4, §5, §6

[6] = test system: B16; experiment: TUNEL analysis of apoptosis; type: cell-based, mouse; conditions: 48 h
Source text: as §4, §5, §6

[7] = test system: inactive Stat5 monomer; experiment: Inactive STAT monomer added to activated Stat3 before EMSA (titration of compound); type: binding

SMILES: CC(O)CN1CCN(CC(C)O)CC1 (stereo not drawn) [PLATINUM-401]
- cell cycle profile [1]: no significant change
- cell cycle change ([2]; BrdU, flow cytometry): arrested at G0/G1 phase
- S phase cells ([2]; persists up to 48 h): significant decrease
- TUNEL staining [3]: Significant TUNEL staining
- TUNEL staining [4]: no TUNEL staining
- TUNEL staining ([5]; 48 h): Significant TUNEL staining
- compound-mediated apoptosis on overexpression of Stat3 ([5]; NIH3T3/v-Src transfected with wild-type Stat3, 5 μM, 36 h): minimizes the extent
- TUNEL staining [6]: Significant TUNEL staining
- influence of inactive Stat5 monomer on compound's effect on Stat3 DNA-binding activity [7]: failed to significantly influence
